Data taken from article PMC4090575, “An In Vivo Microdialysis Study of FLZ Penetration through the Blood-Brain Barrier in Normal and 6-Hydroxydopamine Induced Parkinson's Disease Model Rats” (BioMed Research International, 2014).
Where two headings read alike, the source gives them in different places.

Assays:
[1] = In vivo microdialysis pharmacokinetics of free FLZ in blood and brain dialysates, with or without zosuquidar·3HCl pretreatment; set-up: species or system rat; conditions: for AUC, Brain / AUC: n = 3; for AUC / clearance / half-life / unbound brain-to-blood AUC ratio (Kp,uu): rat, 35 mg/kg; for clearance: read-out: CLz, Blood (converted); for unbound brain-to-blood AUC ratio (Kp,uu): brain dialysate / blood dialysate, BBB penetration ratio of free FLZ, read-out: Ri (AUCbrain/AUCblood)
Method: (§1) Rats were divided into four groups (n = 3 animals per group): three normal rats treated with FLZ only (FLZ only-N); three PD rats treated with FLZ only (FLZ only-PD); three normal rats treated with FLZ plus zosuquidar·3HCl (FLZ + ZOSUQ-N); and three PD rats treated with FLZ plus zosuquidar·3HCl (FLZ + ZOSUQ-PD). The system was equilibrated for 1 h after surgery. FLZ was dissolved in a mixture of dimethyl sulfoxide, polyethylene glycol 400, and sodium chloride injection (1 : 4 : 5 (v/v/v)). All rats received FLZ (35 mg/kg) via intravenous injection into the tail vein (with or without pretreatment with zosuquidar·3HCl). Rats in the FLZ + ZOSUQ-N and FLZ + ZOSUQ-PD groups received an i.v. injection of zosuquidar·3HCl (20 mg/kg, dissolved in 20% ethanol-saline) 10 min before FLZ administration. The dose, route of administration, and timing of P-gp inhibition were based on those described in earlier studies. Microdialysis samples were collected from the striatum and the jugular vein at 15 min intervals for 1 h before (blanks) and for 4 h after FLZ administration. The samples were stored at −80°C until they were analysed by ultraperformance liquid chromatography-tandem mass spectrometry (UPLC-MS/MS). At the end of the experiment, the rats were decapitated and the brains were removed for histological verification of probe placement. Data were discarded if the probe placement was outside the target area.
(§2) The microdialysis system comprised a CMA 470 refrigerated fraction collector, a CMA 402 syringe pump, and fluorinated ethylene propylene tubing (CMA, Solna, Sweden). CMA microdialysis probes for the blood (CMA 20, 10 mm in length) and brain (CMA 12, 4 mm in length) were also used. Animals were anaesthetized with urethane (1.4 g/kg, i.p.) before surgery and remained anesthetized throughout the experimental period. The body temperature of each rat was maintained at 37°C until the end of the experiment using a heating pad. The blood microdialysis probe was positioned within the jugular vein toward the right atrium and sutured to the surrounding muscle to prevent it from slipping out. The probe was then perfused with heparinized ringer's solution (1500 U/mL) for 15 min. The microdialysis guide cannula was implanted into the right striatum zone (anterior-posterior: 0.2 mm; lateral: 3.0 mm; dorsal-ventral: 3.5 mm from bregma) and fixed to the skull with stainless steel screws and dental acrylic. The brain microdialysis probe was inserted through the guide cannula.
(§3) In the pilot microdialysis experiment, ringer's solution was perfused through the probe at a flow rate of 1.5 μL/min and the dialysate samples were collected every 15 min from 90 min before until 6 h after dosing with FLZ. In all the other groups, the probes were perfused with ringer's solution containing 4% BSA, with the flow rate set at 1.0 μL/min.
(§4) The relative recovery of FLZ using the microdialysis probe was estimated using a retrodialysis method after sample collection and clearing overnight until there is no drug in the tissue and blood. Perfusates containing FLZ (20 ng/mL for the brain and 200 ng/mL for the blood) were passed separately into the brain and blood through the microdialysis probes at a constant flow rate of 1 μL/min. After a 1-hour stabilization period, the dialysates were collected at 15 min intervals for 1 hour. The concentrations of FLZ in the dialysate (C out) and perfusate (C in) were analysed by UPLC-MS/MS as described in Section 2.7. Recovery (R) was expressed by the following equation: R = 1 − (C out/C in).
(§5) Pharmacokinetic parameters were calculated from the observed data by noncompartmental analysis using the Drug and Statistics for Windows software package (DAS, version 2.0, Chinese Pharmacological Association, China). […]

P-gp = experiment: as above; set-up: species or system rat; conditions: rat, iv, with zosuquidar·3HCl 20 mg/kg i.v. 10 min before FLZ; for AUC / clearance / half-life: 35 mg/kg; for AUC: zosuquidar·3HCl 20 mg/kg i.v. 10 min before FLZ 35 mg/kg i.v., n = 3; for clearance / half-life / unbound brain-to-blood AUC ratio (Kp,uu): zosuquidar·3HCl 20 mg/kg i.v. pretreatment, FLZ 35 mg/kg i.v.; for clearance: read-out: CLz, Blood (converted); for unbound brain-to-blood AUC ratio (Kp,uu): brain dialysate / blood dialysate, read-out: Ri (AUCbrain/AUCblood)
Method: as §1, §2, §3, §4, §5

[2] = Stability of FLZ in UPLC-MS/MS method validation; format: physicochemical; conditions: during preparation, after three freeze/thaw cycles and after storing at −80°C for 45 days
Method: Stock solutions of FLZ and IS were prepared separately in methanol at a target concentration of 1 mg/mL and then diluted with methanol to create working solutions of FLZ at concentrations of 1, 3, 10, 30, 100, 300, 1000, 1500, 2500, 5000, 10000, and 15000 ng/mL and IS at concentrations of 10 ng/mL. All solutions were stored in glass tubes at 4°C for less than 2 months until analysis and were protected from light. FLZ calibration standards (0.1, 0.3, 1, 3, 10, 30, 100, 150, 250, 500, 1000, and 1500 ng/mL) were prepared by spiking the blank perfusate with the appropriate working standard solution of FLZ. Quality control samples were prepared using the working solutions from the same stock solution (0.1, 0.3, 1, 10, 100, and 1000 ng/mL), thereby representing the entire range of concentrations.
Assay validation to meet the acceptance criteria was performed according to the bioanalytical method validation guideline (European Medicines Agency Guideline on Bioanalytical Method Validation, July 21, 2011). The assay was validated in terms of specificity, matrix effect, recovery, calibration curve, precision, accuracy (intra- and interday), lower limit of quantification (LLOQ), and stability (autosampler, freeze-thaw, and long-term).

[3] = set-up: method as in PMID 22472186; conditions: cited from earlier work
plasma proteins = test system: plasma proteins; set-up: method as in Our previous work; conditions: ref Our previous work; cited from earlier work
[4] = stated with the material supplied; source not given; cited from earlier work
[5] = test system: P-gp mediated multidrug resistance; set-up: method as in PMID 9381979; conditions: high therapeutic index; cited from earlier work
[6] = FLZ + ZOSUQ-N group relative to FLZ only-N group, normal rats
[7] = FLZ + ZOSUQ-PD group relative to FLZ only-PD group, PD rats
[8] = blood (jugular vein) dialysate, FLZ + ZOSUQ-N: normal rats, blood dialysate
[9] = blood (jugular vein) dialysate, FLZ + ZOSUQ-PD: 6-OHDA PD rats, blood dialysate

Compound: COc1ccc(OC)c(C(=Cc2ccc(O)c(OC)c2)C(=O)NCCc2ccc(O)cc2)c1 [FLZ, N-[2-(4-hydroxy-phenyl)-ethyl]-2-(2,5-dimethoxy-phenyl)-3-(3-methoxy-4-hydroxy-phenyl)-acrylamide]
- reduction in FLZ blood dialysate AUC ([1]; FLZ + ZOSUQ-N group compared with FLZ only-N group, normal rats, not statistically significant): 34%
- increase in brain : blood free FLZ AUC ratio [1, 6]: 3 fold
- increase in mean brain dialysate FLZ AUC [1, 6]: 123%
- AUC, Brain ([1]; FLZ + ZOSUQ-N: normal rats, zosuquidar·3HCl 20 mg/kg i.v. pretreatment, FLZ 35 mg/kg i.v., brain dialysate): 324 ± 46∗∗ μg/L × h
- decrease in FLZ blood dialysate AUC [1, 7]: 56%
- increase in FLZ brain dialysate AUC [1, 7]: 130%
- increase in brain : blood free FLZ AUC ratio [1, 7]: 4 fold
- AUC, Brain ([1]; FLZ + ZOSUQ-PD: 6-OHDA PD rats, zosuquidar·3HCl 20 mg/kg i.v. pretreatment, FLZ 35 mg/kg i.v., brain dialysate): 333 ± 103∗ μg/L × h
- AUC, Brain ([1]; FLZ only-N: normal rats, FLZ 35 mg/kg i.v., brain (striatum) dialysate): 145 ± 25 µg·h/L
- decrease in brain : blood free FLZ AUC ratio ([1]; FLZ only-PD group relative to FLZ only-N group, not statistically significant): 20%
- AUC, Brain ([1]; FLZ only-PD: 6-OHDA PD rats, FLZ 35 mg/kg i.v., brain (striatum) dialysate): 145 ± 18 µg·h/L
- AUC ([1]; blood (jugular vein) dialysate, iv, FLZ only-N: normal rats, FLZ 35 mg/kg i.v., blood dialysate, free FLZ): 2350 ± 39 ng·h/mL
- clearance ([1]; blood (jugular vein) dialysate, iv, FLZ only-N: normal rats, FLZ 35 mg/kg i.v., blood dialysate): 248 mL/min/kg
- half-life ([1]; blood (jugular vein) dialysate, iv, FLZ only-N: normal rats, FLZ 35 mg/kg i.v., blood dialysate, read-out: t 1/2, Blood (converted)): 1.21 ± 0.22 h
- AUC ([1]; blood (jugular vein) dialysate, iv, FLZ only-PD: 6-OHDA PD rats, FLZ 35 mg/kg i.v., blood dialysate, free FLZ): 3070 ± 621 ng·h/mL
- clearance ([1]; blood (jugular vein) dialysate, iv, FLZ only-PD: 6-OHDA PD rats, FLZ 35 mg/kg i.v., blood dialysate): 195 mL/min/kg
- half-life ([1]; blood (jugular vein) dialysate, iv, FLZ only-PD: 6-OHDA PD rats, FLZ 35 mg/kg i.v., blood dialysate, read-out: t 1/2, Blood (converted)): 1.34 ± 0.03 h
- half-life ([1]; blood dialysate and brain dialysate, intravenous, present study, both in the blood and brain, free FLZ, read-out: t 1/2 of FLZ (converted)): ~1.1 h
- half-life ([1]; brain (striatum) dialysate, iv, FLZ only-N: normal rats, FLZ 35 mg/kg i.v., brain dialysate, read-out: t 1/2, Brain (converted)): 1.15 ± 0.57 h
- half-life ([1]; brain (striatum) dialysate, iv, FLZ only-PD: 6-OHDA PD rats, FLZ 35 mg/kg i.v., brain dialysate, read-out: t 1/2, Brain (converted)): 1.31 ± 0.29 h
- unbound brain-to-blood AUC ratio (Kp,uu) ([1]; iv, FLZ only-N: normal rats, FLZ 35 mg/kg i.v.): 0.0617 ± 0.0105
- unbound brain-to-blood AUC ratio (Kp,uu) ([1]; iv, FLZ only-PD: 6-OHDA PD rats, FLZ 35 mg/kg i.v.): 0.0492 ± 0.0158
- AUC (P-gp; [8]): 1560 ± 881 ng·h/mL
- clearance (P-gp; [8]): 473 mL/min/kg
- half-life (P-gp; blood (jugular vein) dialysate, FLZ + ZOSUQ-N: normal rats, blood dialysate, read-out: t 1/2, Blood (converted)): 1.11 ± 0.13 h
- AUC (P-gp; [9]): 1330 ± 259 ng·h/mL
- clearance (P-gp; [9]): 447 mL/min/kg
- half-life (P-gp; blood (jugular vein) dialysate, FLZ + ZOSUQ-PD: 6-OHDA PD rats, blood dialysate, read-out: t 1/2, Blood (converted)): 1.43 ± 0.25 h
- half-life (P-gp; brain (striatum) dialysate, FLZ + ZOSUQ-N: normal rats, brain dialysate, read-out: t 1/2, Brain (converted)): 1.04 ± 0.43 h
- half-life (P-gp; brain (striatum) dialysate, FLZ + ZOSUQ-PD: 6-OHDA PD rats, brain dialysate, read-out: t 1/2, Brain (converted)): 1.14 ± 0.27 h
- unbound brain-to-blood AUC ratio (Kp,uu) (P-gp; FLZ + ZOSUQ-N: normal rats): 0.248 ± 0.114
- unbound brain-to-blood AUC ratio (Kp,uu) (P-gp; FLZ + ZOSUQ-PD: 6-OHDA PD rats): 0.246 ± 0.027
- stability of FLZ [2]: remained stable
- increase in FLZ brain-to-plasma ratio with zosuquidar·3HCl pretreatment versus control ([3]; 0.25 min postdose, brain homogenate-to-plasma concentration ratio): about 3.1 fold
- t 1/2 of FLZ reported previously [3]: about 0.5 h
- binding rate of FLZ to plasma proteins (plasma proteins): about 90%
- lipophilicity [4]: lipophilic
- pKa [4]: 13.75 ± 0.46
- water solubility [4]: poorly water-soluble

Compound: Cl.Cl.Cl.O[C@@H](COc1cccc2ncccc12)CN1CCN([C@@H]2c3ccccc3[C@@H]3[C@H](c4ccccc42)C3(F)F)CC1 [Zosuquidar·3HCl, zosuquidar trihydrochloride]
- active doses in in vivo antitumor efficacy experiments [5]: 1 to 30 mg/kg
